From patent US8772250B2, “Compositions and methods for treating ischemia and ischemia-reperfusion injury” (Ischemix, LLC, priority 2010, dated 2014) come the findings set out here.

Structures are written as SMILES. Marks after values point to notes of the source that are not given here.

One assay deals with Akt. Nature of the assay: Immunohistochemistry assay for phosphorylated Akt in H9c2 cells. It counts as cell-based, rat. The settings on record: 50 μM, 3 hours, vs vehicle. Here is the method:
The ability of RLip-EA-OH to increase phosphorylated Akt was assayed in H9c2 cells by immunocytochemistry followed by visualization using microscopy. H9c2 cells are a cell line derived from rat cardiac myocytes and can be manipulated to increase or decrease the level of phosphoryated Akt. Cells were inoculated onto culture plates and allowed to adhere to the bottom, treated, fixed, and permeabilized. Following permeabilization, cells were treated initially with specific phospho-Akt antibodies followed by fluorescent secondary antibodies to quantify the amount of bound primary antibody.
H9c2 cells were plated in 12 well cell culture treated plates at 70% confluence. Cells were incubated overnight to allow cell attachment. The media was changed to low serum (0.5%, fetal bovine serum [FBS]) and cells incubated for another 48 hours. Cells were treated for 3 hours with either vehicle, RLip-EA-OH (50 μM), or co-treatment with LY294002 (25 μM), fixed with 3.7% formaldehyde in phosphate buffered saline and permeabilized with 0.5% Triton X-100 in phosphate buffered saline. After permeabilization, the cells were treated with antibody specific for Akt phosphorylated at threonine-308, followed by treatment with a fluorescent labeled secondary antibody.

The test system of assay [1] is myocardial ischemia-reperfusion injury. Nature of the assay: Rat model of myocardial I/R injury (MI/AR ratio). Type of assay: in vivo. Particulars: for % Reduction in MI/AR Compared to Vehicle: rat IV. An excerpt: A rat model of myocardial I/R injury was used as an in vivo screen to determine if certain lipoic acid derivative compounds are cardio-protective (e.g., against mycoardial ischemia-reperfusion injury). This model is analogous to the ischemia-reperfusion injury observed in cardiac patients following coronary occlusions and cardiac surgery procedures, such as coronary artery bypass grafting (CABG) (Matsui, T., Tao, J., del Monte, F., Lee, K.-H. et al., Akt Activation Preserves Cardiac Function and Prevents Injury After Transient Cardiac Ischemia In vivo, Circulation 2001, 104:330).
The circumflex branch of the left coronary artery was ligated temporarily to induce regional ischemia in the left ventricular mass, followed by the injection of fluorescent microspheres to delineate the ischemic region. The animals were sacrificed about 24 hours after reperfusion and the hearts were excised, sectioned and stained with triphenyltetrazolium. The direct impact of the pharmacologic intervention was determined by measuring the myocardial infarct area (MI), the ischemic area at risk (AR) and the left ventricular area (LV). The reduction of MI over the AR (MI/AR ratio) was used as the primary measure of drug efficacy relative to vehicle controls.
Male Sprague-Dawley rats between 300 and 350 gm were used for these experiments. Anesthesia was induced with 3-4% isoflurane in an induction chamber. After induction, anesthesia was maintained at a surgical plane with 1.5-2.0% isoflurane, administered by a Rodent Ventilator through a 16-gauge angiocatheter introduced orally into the trachea. The ventilator was set at 2.5 cc at a rate of 60-65 breaths per minute to maintain ventilation during surgery. The core temperature of the animal was monitored and maintained at 37° C. using a rectal probe and a heating lamp attached to a temperature controller.
A left anterior thoracotomy was performed and the heart was exposed using a vertical pericardotomy. The circumflex branch of the left coronary artery (LCx) was ligated approximately 4 mm from the aorta using a cardiovascular 7.0 monofilament suture on an 11 mm needle to induce ischemia in the left ventricle.
Fluorescent microspheres (300 μL) were injected into the left ventricular cavity 10-20 minutes after the ligation to delineate the ischemic area. The suture was removed 30 minutes after ligation to reperfuse the ischemic area and the ischemic area was checked for reperfusion.
The chest was then closed in layers using absorbable suture (Dexon 5-0) for the muscle layers and monofilament Nylon 5-0 suture was used to close the cutaneous layer. The animals were allowed to recover, then were returned to the colony.
Twenty-four hours after reperfusion, anesthesia was induced using ketamine hydrochloride and the chest was opened. The animals were sacrificed with 15% potassium chloride aqueous solution (w/v) injected into the LV cavity to arrest the heart in diastole. The heart was excised distal to the aortic valve and washed with saline to remove the blood. Sagittal slices of the heart were obtained between the base of the ventricle and the apex. Five slices of heart tissue were obtained, each 2 mm thick. The slices were immersed in a 1% 2,3,5-triphenyl-2H-tetrazolium chloride (TTC) in saline solution and then stored in the dark for 30 minutes to stain.
Images of the slices were obtained under bright field (to observe the TTC staining) and under fluorescence (to observe the microspheres). The area at risk was determined by the absence of microspheres and the infarct area was determined by the absence of TTC staining.
In vivo experiments employing a rat model of myocardial I/R injury were performed as described in Example 8. Catheterized (jugular vein) rats were used for intravenous dose administration at time points prior to and/or including 0.25 h.

The nature of assay [2]: Oxygen Radical Absorbance Capacity (ORAC) assay. Particulars: mean of 3-4 experiments. From the text:
Peroxyl radicals are one species of reactive oxygen produced by cells during reperfusion. The presence of peroxyl radicals can be detected by fluorescein oxidation. In the presence of peroxyl radicals, fluorescein fluorescence will decay over time. In the presence of an oxygen radical scavenger, the rate of decay is diminished. The change in the rate of decay between control and in the presence of scavengers is used to measure the peroxyl radical scavenging ability of a test compound.
Each compound tested was diluted to a concentration ranging from 25 μM to 250 μM in 10 mM phosphate buffer (pH=7.4) containing 10 nM fluorescein. The buffer and compound were incubated at 37° C. for 10 minutes. After the incubation, flourescein fluorescence was measured using a plate reader (Molecular Devices Flexstation II, Ex=485, Em=520). Baseline fluorescence measurements were recorded for 15 minutes before 2,2′-azobis(2-methylpropionamidine) dihydrochloride (AAPH) was added. The fluorescence decay was recorded for 90 minutes. The fluorescence decay without compound was subtracted from the fluorescence decay with compound. The slope of the decay vs. concentration is reported as the absorbance capacity.

The test system of the next assay is myocardial I/R injury. Nature of the assay: Incidence of acute cardiac dysfunction and mortality in rat model of myocardial I/R injury. It counts as in vivo. The protocol:
The incidence of acute cardiac dysfunction associated with arrhythmia and cardiac arrest requiring intervention and the incidence of mortality due to these co-morbidities was examined in the rat model of myocardial I/R injury described herein for different dosages and dosage regimens for administering RLip-EA-OH. In vivo experiments were performed as described in Example 8 using dosage intervals described in Example 10. Treatments (i.e., vehicle, RLip-EA-OH) were administered as a left intra-ventricular injection, IV bolus, IV infusion, or orally. Specifically, the incidence of non-self-resolving cardiac dysfunction (i.e., extended fibrillation arrhythmia, sudden cardiac arrest) during ischemia and requiring intervention (direct mechanical cardiac resuscitation), and mortality associated with cardiac dysfunction were observed.

Take `C[C@H](NC(=O)[C@H](CCC(=O)O)NC(=O)CCCC[C@@H]1CCSS1)C(=O)O` [RLip-EA-OH, N-(R)-lipoyl-L-glutamyl-L- alanine]: in the assay on Akt, the “fluorescence intensity (Akt phosphorylated at threonine-308)” value is listed as “much brighter”. For the same compound, the “% Reduction in MI/AR Compared to Vehicle” value is recorded as 12% in assay [1] (Entry 2b: 3 mg/kg (1 h infusion) at −1 h); 30* % in assay [1] (Entry 5: 15 mg/kg at −0.25 h); 33* % in assay [1] (Entry 7: 10 mg/kg at −3 h); 43* % in assay [1] (Entry 12: 10 and 10 mg/kg at −3 and −0.25 h); 38* % in assay [1] (Entry 13: 20 and 10 mg/kg at −3 and −0.25 h); 15% in assay [1] (Entry 16: 10 and 10 and 10 mg/kg at −3 and −0.25 h and at reperfusion). Further, the “% Reduction in MI/AR compared to vehicle controls” value in assay [1] (rat, Table 11: 10 mg/kg at −3 h) amounted to 29%. Moreover, the “reduction of MI (meta-analysis)” value in assay [1] (rat, multiple dosing 10 mg/kg at −3 h and −0.25 h) is 43%. Moreover, the “ORAC Value relative to RLip-EA-OH” value in assay [2] turned out to be 100 ± 11. The “ORAC Value relative to RLip-OH” value in assay [2] was 131 ± 6^. Moreover, the results for the “Intervention due to Arrhythmia/Arrest (%)” value in the assay on myocardial I/R injury (Multi-dose (2x)), in the assay with myocardial I/R injury (Multi-dose (3x)) and in the assay with myocardial I/R injury (Single dose) were 3\19 (16) %, 4\18 (22) % and 6\17 (35) %, respectively. Moreover, the “Mortality (%)” value with myocardial I/R injury (Multi-dose (2x)) was 1\19 (5) %; in the assay with myocardial I/R injury (Multi-dose (3x)), 1\18 (5) %; with myocardial I/R injury (Single dose), 2\17 (12) %.
